From ChEMBL document CHEMBL1139677, “DNA interstrand crosslinking agents: synthesis, DNA interactions, and cytotoxicity of dimeric achiral seco-amino-CBI and conjugates of achiral seco-amino-CBI with pyrrolobenzodiazepine (PBD)” (Bioorg Med Chem Lett, 2006)
Activity calls are given as the source filed them. The calls are words filed in the database; no cut-off is given here.

What was measured:
[1] = Induction of pBR322 DNA alkylation at 10 uM by thermally induced cleavage assay; type: functional
[2] = Induction of linear pBR322 DNA interstrand crosslinking at 10 uM; type: functional
P815 [3] = experiment: Cytotoxicity against mouse P815 cells after 3 days; type: cell-based; conditions: P815, 72 h
[4] = Induction of pBR322 DNA alkylation at 1 uM by thermally induced cleavage assay; type: functional
[5] = Induction of supercoiled pBR322 DNA strand cleavage at 6.6 uM; type: functional
P815 [6] = experiment: Cell cycle arrest in mouse P815 cells by accumulation at subG0 phase at 0.026 uM; type: functional
[7] = Induction of pBR322 DNA alkylation at 0.1 uM by thermally induced cleavage assay; type: functional
[8] = Induction of pBR322 DNA alkylation at 100 uM by thermally induced cleavage assay; type: functional
[9] = Induction of supercoiled pBR322 DNA strand cleavage; type: functional
[10] = Induction of linear pBR322 DNA interstrand crosslinking; type: functional

Question: For `COc1cc2c(cc1OCCC(=O)Nc1ccc3oc(C(=O)Nc4cc(N)c5ccccc5c4CCCl)cc3c1)N=C[C@@H]1CCCN1C2=O`, which Activity [1] is on record?
Answer: Active

Question: And the Activity [2]?
Answer: Active

Question: What about the IC50 (P815 [3]) of the same compound?
Answer: 0.026 µM

Question: And the Activity [4]?
Answer: Active

Question: And the Activity [5]?
Answer: 16%

Question: What about the Activity (P815 [6]) of the same compound?
Answer: 21%

Question: With `COc1c(O)c2c(c3cc(C(=O)N4CCc5c4c(O)c(OC)c4[nH]c(C(=O)N6C[C@H]7C[C@@]78C6=CC(=O)c6[nH]cc(C)c68)cc54)[nH]c13)CCN2C(N)=O` as the compound, how does the Activity [7] read?
Answer: Active

Question: With `COc1cc2cc(C(=O)Nc3cc(N)c4ccccc4c3CCCl)[nH]c2c(OC)c1OC` [CENTANAMYCIN] as the compound, how does the IC50 (P815 [3]) read?
Answer: 0.068 µM

Question: With `COc1cc2cc(C(=O)N3CC(CCl)c4c3cc(O)c3ccccc43)[nH]c2c(OC)c1OC` (stereo not given) as the compound, how does the IC50 (P815 [3]) read?
Answer: 0.0086 µM

Question: For `Nc1cc(NC(=O)c2cc3cc(NC(=O)Nc4ccc5oc(C(=O)Nc6cc(N)c7ccccc7c6CCCl)cc5c4)ccc3o2)c(CCCl)c2ccccc12`, which IC50 (P815 [3]) is on record?
Answer: 42 µM

Question: With `COC(=O)CCOc1cc2c(cc1OC)C(=O)N1CCC[C@H]1C=N2` as the compound, how does the IC50 (P815 [3]) read?
Answer: 55 µM

Question: What about the Activity [8] of the same compound?
Answer: inactive

Question: And the Activity [9]?
Answer: 4%

Question: Which Activity [10] does the source give for `C=C1C[C@H]2C=Nc3cc(OCCCOc4cc5c(cc4OC)C(=O)N4CC(=C)C[C@H]4C=N5)c(OC)cc3C(=O)N2C1` here?
Answer: Active

Question: For `COc1cc2c(cc1OCCC(=O)Nc1ccc3oc(C(=O)Nc4cc(O)ccc4CCCl)cc3c1)N=C[C@@H]1CCCN1C2=O`, which IC50 (P815 [3]) is on record?
Answer: 0.56 µM
